In test [1] the test system is Candida parapsilosis 937 A. Briefly: Minimum Inhibitory Concentration (MIC) by broth dilution in microtitre tray, Candida parapsilosis 937 A. The class given is cell-based. Conditions: 37° C., inoculum 10^5. The procedure: (§1) The Minimum Inhibitory Concentration (MIC) was determined by diluting the test compound in a broth medium in a microtitre tray. The organisms, which had been grown previously in a broth medium (yeast nitrogen base+1% glucose), were diluted and added to the wells to provide a final inoculum of approximately 10^5 colony-forming units per well. The trays were incubated at 37° C. and the turbidity of each well noted at intervals. The MIC was taken as the lowest concentration (in μg/ml) which prevented significant growth. |Minimum Inhibitory Concentration (μg/ml) |(determined after 2 and 3 days incubation) | *Inoculum 10^5 cells/ml

The subject of another test is Candida albicans 73/079. As to the kind of experiment: Minimum Inhibitory Concentration (MIC) by broth dilution in microtitre tray, Candida albicans 73/079. The class given is cell-based. The settings on record: 37° C., inoculum 10^5. The method, then: as §1
Where [2] appears, read: 48 h, determined after 2 days incubation.
Where [3] appears, read: 72 h, determined after 3 days incubation.
Setting [4] is: 48 h, Candida albicans 73/079, determined after 2 days incubation.
Where [5] appears, read: 72 h, Candida albicans 73/079, determined after 3 days incubation.

Values after ≈ are worked out from the molar mass of the structure shown.

Turning to `C[C@@H]1[C@H](O)[C@@H](C)/C=C/C=C/C=C/C=C/C=C/C=C/C=C/[C@H](O[C@@H]2O[C@H](C)[C@@H](O)[C@H](N)[C@@H]2O)C[C@@H]2OC(=C[C@H](O)[C@H]2CO)C[C@@H](O)C[C@@H](O)[C@H](O)CC[C@@H](O)C[C@@H](O)CC(=O)O[C@H]1C` [Example E12], the MIC in test [1] (setting [2]) was found to be 8 µg/mL (≈ 8.97 µM); in test [1] (setting [3]) it was 16 µg/mL (≈ 17.9 µM); in the test on Candida albicans 73/079 (setting [4]), 4 µg/mL (≈ 4.48 µM); in the test with Candida albicans 73/079 (setting [5]), 8 µg/mL (≈ 8.97 µM).

In the case of `C[C@@H]1[C@H](O)[C@@H](C)/C=C/C=C/C=C/C=C/C=C/C=C/C=C/[C@H](O[C@@H]2O[C@H](C)[C@@H](O)[C@H](N)[C@@H]2O)C[C@@H]2OC(=C[C@H](O)[C@H]2C(=O)O)C[C@@H](O)C[C@@H](O)[C@H](O)CC[C@@H](O)C[C@@H](O)CC(=O)O[C@H]1C` [Example E6, 13,14-Anhydroamphotericin B], the MIC in test [1] (setting [2]) is 4 µg/mL (≈ 4.41 µM); in test [1] (setting [3]) it was 8 µg/mL (≈ 8.83 µM); against Candida albicans 73/079 (setting [4]), 2 µg/mL (≈ 2.21 µM); against Candida albicans 73/079 (setting [5]), 4 µg/mL (≈ 4.41 µM).

For the compound `COC(=O)[C@H]1[C@@H]2C[C@@H](O[C@@H]3O[C@H](C)[C@@H](O)[C@H](N)[C@@H]3O)/C=C/C=C/C=C/C=C/C=C/C=C/C=C/[C@H](C)[C@@H](O)[C@@H](C)[C@H](C)OC(=O)C[C@H](O)C[C@H](O)CC[C@@H](O)[C@H](O)C[C@H](O)CC(=C[C@@H]1O)O2` [Example E10], the MIC in test [1] (setting [2]) was found to be 32 µg/mL (≈ 34.8 µM); in test [1] (setting [3]) it was 32 µg/mL (≈ 34.8 µM); with Candida albicans 73/079 (setting [4]), 16 µg/mL (≈ 17.4 µM); with Candida albicans 73/079 (setting [5]), 32 µg/mL (≈ 34.8 µM).

Values taken from patent US5116960A, “Amphotericin B derivatives” (Beecham Group p.l.c., priority 1988, dated 1992).
